These are literature values, as cited in US8440844B2, “Process for the preparation of β-amino alcohol” (Council of Scientific & Industrial Research, priority 2011, dated 2013).

Structures are written as SMILES.

In data set [1] the target is γ-secretase. The following applies: Notch-1-sparing γ-secretase inhibitor; background statement, no method given.
Data set [2] has as its system β-amyloid (Aβ) production. As to conditions: background statement.

As to `CCC(CC)[C@@H](CO)NS(=O)(=O)c1ccc(Cl)s1` [(S)—N-(5-chlorothiophene-2-sulfonyl)-β,β-diethylalaninol], the half-maximal effective concentration (EC50) in data set [1] is 28 nM. In addition, in data set [2], the “reduction of Aβ production in vivo” value was “effective in reduction of Aβ production in vivo”.
